pIC50: −log10 of the molar value.
Target: T1, KDM4C (Homo sapiens, UniProt Q9H3R0)
T1 construct: N-terminal GST-tagged KDM4C^2-372 was purchased from BPS Biosciences; GST (N); purchased BPS Biosciences
T1 sequence (Q9H3R0 2-372): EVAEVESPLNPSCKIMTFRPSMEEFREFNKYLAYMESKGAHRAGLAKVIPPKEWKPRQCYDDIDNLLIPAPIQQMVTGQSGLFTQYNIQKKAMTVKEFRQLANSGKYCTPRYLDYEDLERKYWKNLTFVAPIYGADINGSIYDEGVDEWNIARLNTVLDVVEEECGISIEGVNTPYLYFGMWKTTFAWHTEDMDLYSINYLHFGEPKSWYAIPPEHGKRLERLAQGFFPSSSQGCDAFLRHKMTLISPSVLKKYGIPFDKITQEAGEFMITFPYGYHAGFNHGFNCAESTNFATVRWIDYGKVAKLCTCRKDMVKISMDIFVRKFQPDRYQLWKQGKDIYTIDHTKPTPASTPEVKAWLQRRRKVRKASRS
Test: KDM4C Assay (SAMDI mass spectrometry demethylase assay)
Assay type: biochemical
Details: N-terminal GST-tagged KDM4C 2-372; class symbols; read-out: 4C IC50
Procedure, shortened: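 GST-tagged KDM4C 2-372 (5 nM) preincubated 30 min with compound, then H3K9me3 biotinylated peptide (500 nM) and 2-oxoglutarate (15 μM) added in HEPES pH 8.0 with ascorbate, Fe(II), TCEP; 150 min at 25 °C, formic-acid quench. Conversion by SAMDI mass spectrometry from substrate/product peak AUC; IC50 from dose-response.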

SMILES | pIC50
O=C(O)c1ccncc1Nc1c(-c2ccc(F)cc2)cnn1CCN1CCC(F)(F)CC1 [Compound 46, 3-((1-(2-(4,4-difluoropiperidin-1-yl)ethyl)-4-(4-fluorophenyl)-1H-pyrazol-5-yl)amino) isonicotinic acid] | 4.00 to 5.00
Cc1c(-c2ccccc2)nn(CCN2CCC(F)(F)CC2)c1Nc1cnccc1C(=O)O [Compound 66, 3-((1-(2-(4,4-difluoropiperidin-1-yl)ethyl)-4-methyl-3-phenyl-1H-pyrazol-5-yl)amino)isonicotinic acid] | 4.00 to 5.00
Cc1nn(-c2ccc(O)cc2)c(C)c1Nc1cnccc1C(=O)O [Compound 76, 3-((1-(4-hydroxyphenyl)-3,5-dimethyl-1H-pyrazol-4-yl)amino)isonicotinic acid] | 5.00 to 6.00
Cc1nn(C2CCCNCC2)cc1Nc1cnccc1C(=O)O (single isomer, unassigned) [Compound 116] | 6.00 to 7.00
O=C(O)c1ccncc1Nc1cc(-c2ccccc2)nn1[C@H]1CC[C@H](O)CC1 [Compound 39, 3-((1-((trans)-4-hydroxycyclohexyl)-3-phenyl-1H-pyrazol-5-yl)amino)isonicotinic acid] | 6.00 to 7.00

Now from value to compound:

pIC50 | SMILES
6.00 to 7.00 | Cc1cc(Nc2cnccc2C(=O)O)n(C2CCOCC2)n1 [Compound 78, 3-((3-methyl-1-(tetrahydro-2H-pyran-4-yl)-1H-pyrazol-5-yl)amino) isonicotinic acid]
7.00 to 9.00 | Cc1c(Nc2cnccc2C(=O)O)cnn1-c1ccccc1 [Compound 20, 3-((5-methyl-1-phenyl-1H-pyrazol-4-yl)amino)isonicotinic acid]
6.00 to 7.00 | Cc1cc(Nc2cnccc2C(=O)O)n(-c2ccccc2)n1 [Compound 61, 3-((3-methyl-1-phenyl-1H-pyrazol-5-yl)amino) isonicotinic acid]
7.00 to 9.00 | CNC(=O)c1cccc(-n2ncc(Nc3cnccc3C(=O)O)c2C)c1 [Compound 59, 3-((5-methyl-1-(3-(methylcarbamoyl)phenyl)-1H-pyrazol-4-yl)amino) isonicotinic acid]

From US20170291890A1 (Epizyme, Inc., priority 2014, published 2017)
